Paper PMC5809175 (Investigational new drugs, 2016)

Columns and labels:
[1] = Phase I 3 + 3 dose escalation and expansion: DLT, MTD and RP2D; format: in vivo, human; conditions: extensive CYP2C19 metabolizers
clinical = conditions: human, in vivo
[2] = cited from earlier work
hepatocellular carcinoma = conditions: patients with hepatocellular carcinoma, p=0.04, cited from earlier work
CYP2C19 and CYP3A4/5 = conditions: cited from earlier work
CYP3A4 = conditions: cited from earlier work

O=C1NC(=O)[C@@H](c2cn3c4c(cccc24)CCC3)[C@@H]1c1c[nH]c2ccccc12 [tivantinib]
MTD and RP2D, tivantinib ([1]; oral, in combination with temsirolimus): 240 mg twice daily | Dose adjusted AUC0–12, geometric mean (clinical): 67.78 ng·h/mL/mg | Dose adjusted Cmax, geometric mean (clinical): 9.27 ng/mL/mg | RP2D in CYP2C19 poor metabolizers [2]: 240 mg twice daily | time to progression, HR vs placebo (hepatocellular carcinoma; 90% CI 0.43–0.94): 0.64 | time to progression (hepatocellular carcinoma; placebo 1.4 months): 1.6 months | metabolizing enzymes (CYP2C19 and CYP3A4/5): metabolized primarily by CYP2C19 and partially by CYP3A4/5

CO[C@H]1C[C@@H]2CC[C@@H](C)[C@@](O)(O2)C(=O)C(=O)N2CCCC[C@H]2C(=O)O[C@H]([C@H](C)C[C@@H]2CC[C@@H](OC(=O)C(C)(CO)CO)[C@H](OC)C2)CC(=O)[C@H](C)/C=C(\C)[C@@H](O)[C@@H](OC)C(=O)[C@H](C)C[C@H](C)/C=C/C=C/C=C/1C [temsirolimus]
MTD and RP2D, temsirolimus ([1]; intravenous, in combination with tivantinib): 20 mg weekly | AUC0–∞, ratio (%) geometric means (clinical): 1.09% | Cmax, ratio (%) geometric means (clinical): 0.94% | AUC(0-inf) (clinical; AUC0–∞, geometric mean): 1340 ng·h/mL | Cmax (clinical; Cmax, geometric mean): 363 ng/mL | metabolizing enzymes (CYP3A4): primarily metabolized by CYP3A4
